According to EP4628497A1, “STEROID-CATIONIC LIPID COMPOUND AND USE THEREOF” (Jenkem Technology Co., Ltd. (Liaoning), priority 2023, dated 2024):

Assay: Physicochemical parameters of Luc-mRNA-LNP (particle size, PDI, zeta potential, encapsulation efficiency)
Conditions: lipid formulation of Table 1
Protocol: The lipid compound of the present disclosure, neutral lipid (phospholipid), and PEG lipid were dissolved in an ethanol solution according to a specific molar ratio (detailed formulation shown in Table 1). The mRNA was dissolved in a citric acid buffer (pH 4.0) to a final concentration of 135 ng/µL. The LNP mixture and the mRNA dilution were mixed at a volume ratio of 1:3, and mRNA-LNP complexes were prepared using a microfluidic nano-preparation system with a flow rate ratio of 1:3 between the LNP mixture and the mRNA dilution, that is, the LNP volume:the mRNA volume was 1:3. After dilution with a 10× phosphate buffer solution (pH 7.4), ultrafiltration concentration was performed, followed by about 500-fold dilution with solution replacement. An experimental sample was obtained after sterile filtration. Samples were taken and analyzed for average particle size, PDI, and Zeta potential. Table 1: Three-component LNP lipid formulation based on cholesterol cationic lipid compound
Example 13: Preparation, Characterization, and In Vitro Cell Transfection Activity Evaluation of Luc-mRNA-LNP Using luciferase gene Luc-mRNA and referring to the preparation method provided in Example 12 and the lipid formulation provided in Table 1, Luc-mRNA-LNP was constructed, whose encapsulation efficiency, average particle size, PDI, and zeta potential data are shown in Table 2. […]

Encapsulation efficiency (%): below 15%
SMILES: CCCCCCCCCCCOC(=O)CCCCCN(CCO)CCCCCCCC(=O)OC(CCCCCCCC)CCCCCCCC [SM-102]
